Patent US20250163038A1, “CBL-B MODULATORS AND USES THEREOF” (Nimbus Clio, Inc., priority 2021, published 2025)

Legend:
[1] = system: Jurkat (clone E6-1) cells with NFAT luciferase reporter; assay: Jurkat reporter assay (NFAT Luciferase); assay type: cell-based; settings: Homo sapiens; Jurkat NFAT luciferase reporter cells, anti-CD3 stimulation, 6 hr; read-out: Jurkat NFAT EC50
[2] = molecular target: T1, Recombinant human c-Cbl (aa 47-435) (Homo sapiens, UniProt P22681); assay: c-Cbl Biochemical Assay (TR-FRET); settings: hc-Cbl Biochemical Assay (TR-FRET); read-out: TR-FRET hcCbl IC50
T1 sequence (P22681 47-435): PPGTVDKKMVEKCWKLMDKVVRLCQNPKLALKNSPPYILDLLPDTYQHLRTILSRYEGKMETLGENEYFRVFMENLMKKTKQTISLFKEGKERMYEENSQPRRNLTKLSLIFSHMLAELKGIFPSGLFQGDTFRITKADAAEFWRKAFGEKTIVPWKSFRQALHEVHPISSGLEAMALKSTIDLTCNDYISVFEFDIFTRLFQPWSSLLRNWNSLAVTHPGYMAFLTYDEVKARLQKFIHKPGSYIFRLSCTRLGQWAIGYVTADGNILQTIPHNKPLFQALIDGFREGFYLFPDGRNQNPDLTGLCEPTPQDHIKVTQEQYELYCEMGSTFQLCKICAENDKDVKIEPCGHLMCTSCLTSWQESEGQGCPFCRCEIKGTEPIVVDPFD

[3] = molecular target: Recombinant human Cbl-b (aa 36-427) (Homo sapiens, UniProt Q13191); assay: Cbl-b Biochemical Assay (TR-FRET); settings: read-out: TR-FRET hCbl-b IC50
Sequence of Recombinant human Cbl-b (aa 36-427) (Q13191 36-427): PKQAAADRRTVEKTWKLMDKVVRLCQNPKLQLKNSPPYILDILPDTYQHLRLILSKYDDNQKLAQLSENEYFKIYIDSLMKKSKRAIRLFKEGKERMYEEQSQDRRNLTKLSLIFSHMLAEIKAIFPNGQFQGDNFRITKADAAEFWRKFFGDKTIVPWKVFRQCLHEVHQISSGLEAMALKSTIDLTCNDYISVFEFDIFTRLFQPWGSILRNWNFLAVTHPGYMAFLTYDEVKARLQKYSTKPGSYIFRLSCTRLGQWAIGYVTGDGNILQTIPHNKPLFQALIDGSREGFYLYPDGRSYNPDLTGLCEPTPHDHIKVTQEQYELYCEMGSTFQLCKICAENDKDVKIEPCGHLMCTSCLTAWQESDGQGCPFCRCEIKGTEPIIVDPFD

SMILES	EC50 [1]	IC50 [2]	IC50 [3]
Cn1cnnc1-c1cc(F)ccc1-c1cc(-c2nc3cc(CO)ccc3o2)nc(C2CC2)c1 [ADQ-1, (2-{6-Cyclopropyl-4-[4-fluoro-2-(4-methyl-1,2,4-triazol-3-yl)phenyl]pyridin-2-yl}-1,3-benzoxazol-5-yl)MeOH]	10000 to 50000 nM	1000 to 10000 nM	1000 to 10000 nM
CO[C@H]1CCC[C@H]1N(C)Cc1cc(C(F)(F)F)c2oc(-c3cccc(-c4ccc(F)cc4-c4nncn4C)c3)nc2c1 [CN-5, (1R,2S)—N-((2-(4′-Fluoro-2′-(4-methyl-4H-1,2,4-triazol-3-yl)-[1,1′-biphenyl]-3-yl)-7-(trifluoromethyl)benzo[d]oxazol-5-yl)methyl)-2-methoxy-N-methylcyclopentan-1-amine]	200 to 1000 nM	200 to 1000 nM	< 200 nM
Cc1cc(CN[C@@H]2CCC[C@@H]2O)cc2nc(-c3cc(-c4ccc(F)cc4-c4nncn4C)cc(C4CC4)n3)oc12 [AEU-2, (1S,2R)-2-{[(2-{6-Cyclopropyl-4-[4-fluoro-2-(4-methyl-1,2,4-triazol-3-yl)phenyl]pyridin-2-yl}-7-methyl-1,3-benzoxazol-5-yl)methyl]amino}cyclopentan-1-ol]	< 200 nM	< 200 nM	< 200 nM
Cn1cnnc1-c1cc(F)ccc1-c1cc(-c2nc3cc(CNCC4(O)CCC4)ccc3o2)nc(C2CC2)c1 [AFC-1, 1-({[(2-{6-Cyclopropyl-4-[4-fluoro-2-(4-methyl-1,2,4-triazol-3-yl)phenyl]pyridin-2-yl}-1,3-benzoxazol-5-yl)methyl]amino}methyl)cyclobutan-1-ol]	< 200 nM	< 200 nM	< 200 nM
COCCNCc1cc(C(F)(F)F)c2oc(-c3cccc([C@]4(c5nncn5C)C[C@@H](C)C4)c3)nc2c1 [ADN-1, (2-Methoxyethyl)[(2-{3-[(1r,3s)-3-methyl-1-(4-methyl-1,2,4-triazol-3-yl)cyclobutyl]phenyl}-7-(trifluoromethyl)-1,3-benzoxazol-5-yl)methyl]amine]	200 to 1000 nM	200 to 1000 nM	< 200 nM
Cn1cnnc1-c1cc(F)ccc1-c1cccc(-c2nc3cc(CN[C@@H]4CCCC[C@@H]4O)cc(C(F)(F)F)c3o2)c1 [DF-2, (1S,2R)-2-(((2-(4′-Fluoro-2′-(4-methyl-4H-1,2,4-triazol-3-yl)-[1,1′-biphenyl]-3-yl)-7-(trifluoromethyl)benzo[d]oxazol-5-yl)methyl)amino)cyclohexan-1-ol]	< 200 nM	< 200 nM	< 200 nM
CN(C)C(=O)CNCc1cc(C(F)(F)F)c2oc(-c3cccc(-c4ccc(F)cc4-c4nncn4C)c3)nc2c1 [EI-4, 2-(((2-(4′-Fluoro-2′-(4-methyl-4H-1,2,4-triazol-3-yl)-[1,1′-biphenyl]-3-yl)-7-(trifluoromethyl)benzo[d]oxazol-5-yl)methyl)amino)-N,N-dimethylacetamide]	200 to 1000 nM	200 to 1000 nM	< 200 nM

The next lines start with the values.

EC50 [1]	IC50 [2]	IC50 [3]	SMILES
< 200 nM	200 to 1000 nM	< 200 nM	Cn1cnnc1-c1cc(F)ccc1-c1cccc(-c2nc3cc(CNCC4COC4)c(F)c(F)c3o2)c1 [JE-1, 1-(6,7-Difluoro-2-(4′-fluoro-2′-(4-methyl-4H-1,2,4-triazol-3-yl)-[1,1′-biphenyl]-3-yl)benzo[d]oxazol-5-yl)-N-(oxetan-3-ylmethyl)methanamine]
< 200 nM	< 200 nM	< 200 nM	Cc1cc(CNCC2(O)CCC2)cc2nc(-c3cccc(-c4ccc(F)cc4-c4nncn4C)c3)oc12 [IJ-1, 1-((((2-(4′-Fluoro-2′-(4-methyl-4H-1,2,4-triazol-3-yl)-[1,1′-biphenyl]-3-yl)-7-methylbenzo[d]oxazol-5-yl)methyl)amino)methyl)cyclobutan-1-ol]
< 200 nM	< 200 nM	< 200 nM	[2H]C([2H])(NCC1(O)CCC1)c1cc(C(F)(F)F)c2oc(-c3cccc(-c4ccc(F)cc4-c4nncn4C)c3)nc2c1 [HB-1, 1-((((2-(4′-Fluoro-2′-(4-methyl-4H-1,2,4-triazol-3-yl)-[1,1′-biphenyl]-3-yl)-7-(trifluoromethyl)benzo[d]oxazol-5-yl)methyl-d2)amino)methyl)cyclobutan-1-ol]
